From a melting point compilation (Tetko et al.; mined from patent text by program, amines drawn as free bases though some values may be those of a salt)

SMILES | melting point [°C]
O=Cc1ccccc1Oc1ccc(F)cc1[N+](=O)[O-] | 94 to 95
O=S1(=O)CC2C(C1)N(CCO)CCN2CCO (stereo not drawn) | 145 to 147
CNC(=O)Oc1ccccc1OC | 90 to 92
Cn1c(Cc2c(F)cccc2F)nnc1C(N)=O | 189 to 190
CCOC(=O)c1sc(SC)c2c1CCC(NC(C)=O)C2=O (stereo not drawn) | 215 to 216
CC(=O)N1CCCC2=C1CCc1cc(Cl)ccc12 | 106 to 108
CCNC(=O)N(CC)C(=O)Nc1ccn(Cc2ccccc2Cl)c(=O)c1NC(=O)N[C@@H](CC(=O)O)c1ccc(C)cc1 | 128 to 130
O=C(Nc1ccccc1OC(=O)c1ccccc1)c1cc(Cl)c(OC(=O)c2ccccc2)c(Cl)c1 | 157 to 160
CN1C(C)(C)CC2(CC1(C)C)NC(=O)N(CC(O)COC(=O)CCCCC(=O)OCC(O)CN1C(=O)NC3(CC(C)(C)N(C)C(C)(C)C3)C1=O)C2=O (stereo not drawn) | 180 to 184
O=[N+]([O-])c1ccc(NCCC23CCCN2CCC3)c2ccccc12 | 90 to 91
CCCCc1cc2c(Nc3ccc4[nH]ccc4c3)c(C#N)cnc2s1 | 210
CNC(=O)c1ccc2c(c1)C(=O)N1CCC[C@@H]1CO2 | 186 to 189
Cc1c(C(=O)c2sc(Nc3ccc(N4CCOCC4)cc3)nc2N)ncn1C | > 300
CCC(=O)NS(=O)(=O)c1cccc(-c2cc(-c3nc(-c4ccc(C(F)(F)F)cc4)cc(C(F)(F)F)n3)ccn2)c1 | 144
Cn1cnc(COc2nn3c(-c4ccccc4F)nnc3cc2C2(C)CCOCC2)n1 | 154
CS(=O)(=O)c1ccc(N2CC(O)(C(F)(F)F)N=C2c2ccccn2)cc1 (stereo not drawn) | 195 to 198
CCOC(=O)N1CCC(Nc2cc(OC)ccc2N)CC1 | 97 to 99
CC(=O)Nc1cccc(C2=NNC(=O)C3CC23)c1 (stereo not drawn) | 200 to 202

The remaining lines, values ahead:

melting point [°C] | SMILES
159 to 161 | CCOC(=O)c1cnc2c(SC(=O)N3CCN(Cc4ccc5c(c4)OCO5)CC3)cccn2c1=O
149 to 152 | CC(CC(=O)O)(C(=O)O)c1ccc(F)cc1 (stereo not drawn)
52 to 55 | COC(=O)Cc1ccc(OCCNC(=O)C2Cc3ccccc3N2S(=O)(=O)c2ccc(-c3cc(C(F)(F)F)ccc3F)cc2)cc1 (stereo not drawn)
121 to 123 | COc1ccc(C(=O)c2ccccc2-c2ccc(C#N)cc2)cc1
131 to 132 | N#CCCNC(=O)c1cccc(-c2cccc(OC3CCCCC3)n2)c1
136 to 138 | CCOC(=O)C1=Cc2cc(C(=O)Cc3ccccc3)ccc2OC1C(F)(F)F (stereo not drawn)
113 to 116 | O=C(Nc1ccc(-n2nc(C(F)(F)F)cc2C(F)(F)F)cc1)c1cccc(Cl)c1F
75 to 80 | Cc1ccc(Cc2c[nH]c(NCCCC3CCCc4cccnc43)nc2=O)cn1 (stereo not drawn)
148 to 149 | N#CSCC(=O)c1ccc(Br)cc1
179 | COC(=O)c1ccc2cc(C(=O)c3cc(OCc4ccc(F)cc4)c4c(c3)C(C)(C)CCC4(C)C)ccc2c1
190 | Cc1ccc(C(=O)c2cc(-c3ccc(Cl)cc3)c(N3CCOCC3)s2)cc1
149 to 151 | O=C(NCC1CCN(CCc2ccccn2)CC1)c1ccc2nonc2c1
127 to 132 | CCOC(=O)c1c(-c2ccc(Cl)s2)ccnc1C(C(=O)OCC)c1cc(OC)cc(OC)n1 (stereo not drawn)
232 to 234 | O=Cc1ccc2cccc3c4cccc5cccc(c1c23)c54
203 to 205 | Cc1nc(N)c2nc(C)n(NC(C)C)c2c1C
55 to 57 | CC1OC(C)C(C(=O)O)C1=O (stereo not drawn)
85 to 92 | O=C(O)c1cccc(OCCNC(=O)C2Cc3ccccc3N2S(=O)(=O)c2ccc(-c3cccc(C(F)(F)F)c3)cc2)c1 (stereo not drawn)
271 to 273 | CS(=O)c1cnc2ccsc2c1O (stereo not drawn)
65 to 66 | COc1cccc(CN[C@@H](C)C2CCCCC2)c1O
167 to 168 | Cc1nc(-n2ccn(Cc3ccc(F)cc3)c2=O)sc1C(=O)NCc1ccccc1
